Laboratory results as given in patent US20250375526A1, “IRAK DEGRADERS AND USES THEREOF” (Kymera Therapeutics, Inc., priority 2020, published 2025).

Each compound was assayed against T1, IRAK4 (Homo sapiens, UniProt Q9NWZ3) (assay: OCI-LY10 IRAK MSD assay DC50 (IRAK4 degradation)). Settings: OCI-Ly10 cells, incubated for 4 hr, concentration of compound required to degrade 50% of protein.
T1 construct: endogenous in cells; host or cells: OCI-Ly10
T1 sequence (Q9NWZ3 1-460): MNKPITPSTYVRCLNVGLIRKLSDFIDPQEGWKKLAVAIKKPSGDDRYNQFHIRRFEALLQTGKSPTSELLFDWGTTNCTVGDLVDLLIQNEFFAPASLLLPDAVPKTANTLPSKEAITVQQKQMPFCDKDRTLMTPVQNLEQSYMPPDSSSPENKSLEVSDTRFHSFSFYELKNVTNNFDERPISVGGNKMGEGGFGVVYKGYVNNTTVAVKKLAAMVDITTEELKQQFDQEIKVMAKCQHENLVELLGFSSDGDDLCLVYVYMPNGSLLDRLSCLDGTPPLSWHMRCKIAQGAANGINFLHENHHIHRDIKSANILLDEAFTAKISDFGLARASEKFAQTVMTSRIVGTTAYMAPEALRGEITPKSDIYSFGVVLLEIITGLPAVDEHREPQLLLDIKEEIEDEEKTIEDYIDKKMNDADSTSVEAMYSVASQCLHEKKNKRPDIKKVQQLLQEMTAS
Format: cell-based
Procedure: A MSD assay is run to determine the concentration of compound required to degrade 50% of protein (DC50).
• Compounds were reconstituted to 10 mM in stock solutions. The stock solutions were diluted to 5 mM and 45 μL of each dilution was transferred to a 384 pp-plate. A 3 fold, 8-point serial dilution was performed by transferring 15 μL of compound into 30 μL DMSO using Janus. • 20 nL of each compound were added into each well of a 96-well plate (Corning3799). • OCI-Ly10 cells were seeded into the 96-well plate at 3.0*10e^5 cells/100 μL/well. • The cell plate was shaken at 720 rpm for 5 min and incubated for 4 hr. • 100 μL of cells were transferred into the 96-PCR plate and spun down at high speed for 5 mins. • The supernatant was discarded and 100 μL of RIPA lysis buffer with proteinase inhibitors was added per well. The plate was then sealed and shaken at 600 rpm and 4° C. for about 20 min. • The plate was then spun down at high speed (about 3200 g) for 30 min and then frozen in a −80° C. fridge. • A bare MSD plate (L15XA-3) was coated with 2 μg/mL of capture antibody (mouse Anti-IRAK4 antibody [2H9], ab119942) in PBS to 40 μL/well and incubated overnight at 4° C.
• The MSD coated plate was washed 3× (150 μL/well) with 1×TBST (CST #9997S). • The MSD plate was then blocked with 150 μL of blocking buffer [3% Blocker A (MSD, R93BA-4) in TBST]/well and shaken for 1 hr at RT and 600 rpm. • The MSD plate was washed 3× (150 μL/well) with 1×TBST. The sample RIPA lysates were then added to the MSD plate (50 μL/well) and shaken for 1 hr at RT and 600 rpm. • The MSD plate was washed 3× (150 μL/well) with 1×TBST and the primary detection antibody (Rabbit Anti-IRAK4 antibody [Y279], ab32511) was added to a final concentration of 1 μg/ml with 25 μL/well. The plate was then shaken for 1 hr at RT and 600 rpm. • The MSD plate was washed 3× (150 μL/well) with 1×TBST and the secondary detection antibody, SULFO-TAG anti-species antibody (Anti Rabbit Antibody (R32AB-5) MSD, R32AB-1) was added to a volume of 25 μL/well at a final concentration of 1 μg/ml. The plate was then shaken for 1 hr at RT and 600 rpm. • The MSD plate was then washed 3× (150 μL/well) with 1×TBST. • 1×MSD reading buffer was then added (150 μL/well) and the plate […].
(MSD, R92TC-2) • The MSD instrument was then read.
The remaining activity was calculated following the formula below:
• The DC50 was calculated by fitting the Curve using Xlfit (v5.3.1.3), equation 201: […]
The letter codes for IRAK4 DC50 indicate the concentration of compound required to degrade 50% of protein: A (<0.01 μM), B (0.01-0.1 μM), C (>0.1-0.2 μM), D (>0.2 μM).

First: O=C1CCN(c2cncc3c(C4CCN(C[C@H]5CC[C@H](n6cc7cc(NC(=O)c8cccc(C(F)(F)F)n8)ccc7n6)CC5)CC4)cccc23)C(=O)N1 [I-10]
Second: O=C1CCN(c2cnc3c(C4CCN(C[C@H]5CC[C@H](n6cc7cc(NC(=O)c8cccc(C(F)(F)F)n8)ccc7n6)CC5)CC4)cccn23)C(=O)N1 [I-28]
The DC50 of the first is lower: 10 to 100 nM for the first, greater than 200 nM for the second.

First: O=C1CCN(c2cncc3cc(C4CCN(C[C@H]5CC[C@H](n6cc7cc(NC(=O)c8cccc(C(F)(F)F)n8)ncc7n6)CC5)CC4)ccc23)C(=O)N1 [I-18]
Second: O=C1CCN(c2cnc3cc(C4CCN(C[C@H]5CC[C@H](n6cc7cc(NC(=O)c8cccc(C(F)(F)F)n8)ncc7n6)CC5)CC4)ccn23)C(=O)N1 [I-37]
The DC50 of the first is lower: less than 10 nM for the first, greater than 200 nM for the second.

First: CN(C[C@H]1CC[C@H](n2cc3cc(NC(=O)c4cccc(C(F)(F)F)n4)ccc3n2)CC1)C1CCN(c2ccc3c(N4CCC(=O)NC4=O)cncc3c2)CC1 [I-19]
Second: CN(C[C@H]1CC[C@H](n2cc3cc(NC(=O)c4cccc(C(F)(F)F)n4)ccc3n2)CC1)C1CCN(c2ccn3c(N4CCC(=O)NC4=O)cnc3c2)CC1 [I-35]
The DC50 of the first is higher: 10 to 100 nM for the first, less than 10 nM for the second.

First: CN(C[C@H]1CC[C@H](n2cc3cc(NC(=O)c4cccc(C(F)(F)F)n4)ccc3n2)CC1)C1CCN(c2cccn3c(N4CCC(=O)NC4=O)cnc23)CC1 [I-27]
Second: CN(C[C@H]1CC[C@H](n2cc3cc(NC(=O)c4cccc(C(F)(F)F)n4)ncc3n2)CC1)C1CCN(c2cccn3c(N4CCC(=O)NC4=O)cnc23)CC1 [I-30]
The DC50 of the first is higher: greater than 200 nM for the first, 100 to 200 nM for the second.

Compared with `O=C1CCN(c2cnc3c(C4CCN(C[C@H]5CC[C@H](n6cc7cc(NC(=O)c8cccc(C(F)(F)F)n8)ncc7n6)CC5)CC4)cccn23)C(=O)N1` [I-29], `O=C1CCN(c2cnc3c(C4CCN(C[C@H]5C[C@H](n6cc7cc(NC(=O)c8cccc(C(F)(F)F)n8)ccc7n6)C5)CC4)cccn23)C(=O)N1` [I-39, N-[2-[3-[[4-[3-(2,4-dioxohexahydropyrimidin-1-yl)imidazo[1,2-a]pyridin-8-yl]-1-piperidyl]methyl]cyclobutyl]indazol-5-yl]-6-(trifluoromethyl)pyridine-2-carboxamide] is higher in DC50: 10 to 100 nM for the first, greater than 200 nM for the second.

First: CN(C[C@H]1CC[C@H](n2cc3cc(NC(=O)c4cccc(C(F)(F)F)n4)ncc3n2)CC1)C1CCN(c2ccn3c(N4CCC(=O)NC4=O)cnc3c2)CC1 [I-33]
Second: COc1cc2nn([C@H]3CC[C@H](CN4C5CCC4CN(c4ccn6c(N7CCC(=O)NC7=O)cnc6c4)C5)CC3)cc2cc1NC(=O)c1cccc(C(F)(F)F)n1 [I-45]
The DC50 of the first is lower: less than 10 nM for the first, 10 to 100 nM for the second.

First: COc1cc2nn([C@H]3CC[C@H](CN4CCC(c5ccn6c(N7CCC(=O)NC7=O)cnc6c5)CC4)CC3)cc2cc1NC(=O)c1cccc(C(F)(F)F)n1 [I-36, N-[2-[4-[[4-[3-(2,4-dioxohexahydropyrimidin-1-yl)imidazo[1,2-a]pyridin-7-yl]-1-piperidyl]methyl]cyclohexyl]-6-methoxy-indazol-5-yl]-6-(trifluoromethyl)pyridine-2-carboxamide]
Second: COc1cc2nn([C@H]3CC[C@H](CN4CCCN(c5cccn6c(N7CCC(=O)NC7=O)cnc56)CC4)CC3)cc2cc1NC(=O)c1cccc(C(F)(F)F)n1 [I-47]
The DC50 of the first is lower: less than 10 nM for the first, 10 to 100 nM for the second.

`O=C1CCN(c2cnc3cc(C4CCN(C[C@H]5C[C@H](n6cc7cc(NC(=O)c8cccc(C(F)(F)F)n8)ccc7n6)C5)CC4)ccn23)C(=O)N1` [I-38] and `COc1cc2nn([C@H]3C[C@H](CN4CCC(c5cccc6c(N7CCC(=O)NC7=O)cncc56)CC4)C3)cc2cc1NC(=O)c1cccc(C(F)(F)F)n1` [I-40] fall in the same range of DC50: 10 to 100 nM for the first, 10 to 100 nM for the second.

Compared with `O=C1CCN(c2cnc3cc(C#CCO[C@@H]4CCN(C[C@H]5C[C@H](n6cc(NC(=O)c7cnn8ccc(N9C[C@H]%10C[C@@H]9CO%10)nc78)c(C(F)F)n6)C5)C[C@@H]4F)ccn23)C(=O)N1` [I-42], `COc1cc2nn([C@H]3CC[C@H](CN(C)C4CCN(c5cccn6c(N7CCC(=O)NC7=O)cnc56)CC4)CC3)cc2cc1NC(=O)c1cc(F)cc(C(F)(F)F)c1` [I-43] is higher in DC50: less than 10 nM for the first, 10 to 100 nM for the second.

In the case of `COc1cc2nc([C@H]3CC[C@H](CN(C)C4CCN(c5cccn6c(N7CCC(=O)NC7=O)cnc56)CC4)CC3)sc2cc1NC(=O)c1cccc(C(F)(F)F)n1` [I-44], the DC50 is reported as 10 to 100 nM.
